Experimental data as given in patent US20230140276A1, “TRICYCLIC COMPOUNDS, PREPARATION METHOD AND MEDICAL USE THEREOF” (HEFEI INSTITUTE OF PHARMACEUTICAL INDUSTRY CO., LTD., priority 2020, published 2023).

Tests used:
[1] = tested on: histamine-induced skin vascular permeability; assay: Inhibitory effect on histamine-induced vascular permeability in mice; type: in vivo, ICR mice; conditions: Mus musculus, po; 5 mg/kg intragastric 1 hour before modeling; histamine phosphate 1 ug/0.1 mL; Evans Blue absorbance at 610 nm; read-out: Inhibition rate (%)
Procedure: Intragastric administration was performed 1 hour before modeling. The model group was given the corresponding solvent. […] 10% sodium sulfide was used to depilate the back of mice (3 cm×3 cm). The mice were injected 1 ug/0.1 mL of histamine phosphate physiological saline solution into the depilation site one hour after the administration, and injected 0.25% Evans Blue solution 4 ml/kg from the tail vein immediately after the injection. After 30 minutes, the mice were dislocated and sacrificed. The blue-stained part of the skin was removed and perforated (diameter 15 mm), cut into pieces and soaked in 1 ml of acetone-saline (7:3) solution. After 24 h, it was centrifuged (3000 r/min, 10 min) to take the supernatant. The absorbance of the sample was measured with an ultraviolet spectrophotometer at a wavelength of 610 nm and a blank zero calibration with acetone-physiological saline solution.

hERG potassium channel = hERG potassium channel (Homo sapiens, UniProt Q12809); assay: hERG potassium channel activity test; type: biochemical
[2] = tested on: pilocarpine-induced saliva secretion; assay: Pilocarpine-induced salivation in rats; conditions: for saliva secretion compared with the model group: 10 mg/kg intragastric administration; for Inhibition rate (%): 10 mg/kg intragastric, pilocarpine 1 mg/kg i.p. 15 minutes later, saliva collected 10 minutes
Procedure: Rats in each group were given corresponding drugs by intragastric administration. 15 minutes later, pilocarpine (1 mg/kg, dissolved in physiological saline) was injected intraperitoneally to induce saliva secretion. The rat was immediately anesthetized by intraperitoneal injection of 10% chloral hydrate. After the rat was anesthetized, the residual saliva in the oral cavity was taken out with a cotton ball in that the weighed cotton ball (M1) was placed in the oral cavity (two under the tongue and one for each on both sides). The cotton ball was taken out 10 minutes later and the weight of the cotton ball (M2) was immediately measured.
Inhibition rate=Saliva secretion in drug administration group/Saliva secretion in model group×100%

Chain of hERG potassium channel (Q12809 whole entry): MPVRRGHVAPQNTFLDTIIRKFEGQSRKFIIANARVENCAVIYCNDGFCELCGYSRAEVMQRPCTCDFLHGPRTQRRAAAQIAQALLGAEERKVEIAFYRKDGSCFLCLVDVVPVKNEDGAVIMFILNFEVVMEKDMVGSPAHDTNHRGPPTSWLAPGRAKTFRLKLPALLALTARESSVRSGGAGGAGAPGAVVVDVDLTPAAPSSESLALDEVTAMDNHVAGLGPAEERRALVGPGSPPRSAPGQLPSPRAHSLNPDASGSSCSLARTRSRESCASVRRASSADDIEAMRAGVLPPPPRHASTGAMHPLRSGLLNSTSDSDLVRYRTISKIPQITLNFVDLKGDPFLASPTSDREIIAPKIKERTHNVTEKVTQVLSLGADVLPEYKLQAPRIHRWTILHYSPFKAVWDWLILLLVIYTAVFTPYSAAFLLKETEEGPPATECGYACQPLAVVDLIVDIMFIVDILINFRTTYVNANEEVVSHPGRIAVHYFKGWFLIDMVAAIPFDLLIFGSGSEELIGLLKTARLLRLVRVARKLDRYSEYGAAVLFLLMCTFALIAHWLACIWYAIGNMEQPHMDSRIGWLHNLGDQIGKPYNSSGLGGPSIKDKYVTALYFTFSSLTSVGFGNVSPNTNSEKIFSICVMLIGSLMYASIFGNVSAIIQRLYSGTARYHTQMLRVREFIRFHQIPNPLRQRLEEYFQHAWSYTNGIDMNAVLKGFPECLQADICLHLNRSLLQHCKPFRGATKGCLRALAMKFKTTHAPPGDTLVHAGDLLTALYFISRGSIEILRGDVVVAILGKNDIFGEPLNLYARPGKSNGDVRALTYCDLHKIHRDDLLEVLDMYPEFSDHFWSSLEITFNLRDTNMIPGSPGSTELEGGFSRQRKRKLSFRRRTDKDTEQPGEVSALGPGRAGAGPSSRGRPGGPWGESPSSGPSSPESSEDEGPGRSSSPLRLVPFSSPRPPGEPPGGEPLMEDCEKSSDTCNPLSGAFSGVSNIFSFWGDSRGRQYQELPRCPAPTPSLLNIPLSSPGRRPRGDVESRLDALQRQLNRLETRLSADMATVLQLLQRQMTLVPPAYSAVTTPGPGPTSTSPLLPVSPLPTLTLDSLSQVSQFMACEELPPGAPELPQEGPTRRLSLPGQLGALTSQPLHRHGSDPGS

Row | SMILES | inhibition in vivo at 5 mg/kg [1] [%] | IC50 (hERG potassium channel) [µM] | saliva secretion compared with the model group [2] | Inhibition rate (%) [2] [%]
1 | Cc1ccc2c(c1)CCc1cccnc1C2=C1CCN(CCCc2ccc(C(=O)O)cc2)CC1 [Compound 1, reference compound] | 36.1 | 2.03 | decreased | 84.30
2 | COc1ccccc1OCC(O)CN1CCC(=C2c3ccc(Cl)cc3CCc3cccnc32)CC1 (centres unmarked) [Compound LHC-7, reference compound] | 53.2 | 0.248 | – | 95.60
3 | Cc1nc(C)c(CN2CCC(=C3c4ccc(Cl)cc4CCc4cccnc43)CC2)nc1C [Compound LP-2, reference compound] | 54.1 | 4.03 | decreased | 98.40
4 | CC(C)(C(=O)O)c1ccc(CN2CCC(=C3c4ccc(Cl)cc4CCc4cccnc43)CC2)cc1 [Example 1, 2-(4-((4-(8-chloro-5,6-dihydro-11H-benzo[5,6]cyclohept[1,2-b]pyridine-11-enyl)piperidine-1-yl)methyl)phenyl)-2-methylpropionic acid] | 52.2 | > 30 | – | 18.53
5 | CC(C)(C(=O)O)c1ccc(CCCN2CCC(=C3c4ccc(Cl)cc4CCc4cccnc43)CC2)cc1 [Example 3, 2-(4-(3-(4-(8-chloro-5,6-dihydro-11H-benzo[5,6]cyclohept[1,2-b]pyridine-11-enyl)piperidine-1-yl)propyl)phenyl)-2-methylpropionic acid] | 41.7 | > 30 | – | 7.02
6 | CC(C)(C(=O)O)c1ccc(CCCN2CCC(=C3c4ccc(Cl)cc4CCc4cccnc43)CC2)c(C#N)c1 [Example 4, 2-(4-(3-(4-(8-chloro-5,6-dihydro-11H-benzo[5,6]cyclohepta[1,2-b]pyridine-11-ylidene)piperidine-1-yl)propyl)-3-cyano)-2-methylpropionic acid] | 65.4 | > 30 | – | 8.72
7 | CC(C)(C(=O)O)c1ccc(CCCN2CCC(=C3c4ccc(Cl)cc4CCc4cccnc43)CC2)c(OC(F)(F)F)c1 [Example 7, 2-(4-(3-(4-(8-chloro-5,6-dihydro-11H-benzo[5,6]cyclohepta[1,2-b]pyridine-11-enyl)piperidine-1-yl)propyl)-3-(trifluoromethoxy)phenyl)-2-methylpropionic acid] | 42.6 | > 30 | – | 4.65
8 | CC(C)(C(=O)O)c1ccc(CCCN2CCC(=C3c4ccc(Cl)cc4CCc4cccnc43)CC2)c(F)c1 [Example 8, 2-(4-(3-(4-(8-chloro-5,6-dihydro-11H-benzo[5,6]cyclohepta[1,2-b]pyridine-11-enyl)piperidine-1-yl)propyl)-3-fluorophenyl)-2-methylpropionic acid] | 34.9 | > 30 | – | 8.23
9 | Cc1cc(CCCN2CCC(=C3c4ccc(Cl)cc4CCc4cccnc43)CC2)ccc1C(C)(C)C(=O)O [Example 11, 2-(4-(3-(4-(8-chloro-5,6-dihydro-11H-benzo[5,6]cyclohepta[1,2-b]pyridine-11-enyl)piperidine-1-yl)propyl)-2-methylphenyl)-2-methylpropionic acid] | 36.9 | > 30 | – | 5.20
10 | CC(C)(C(=O)O)c1ccc(CCCN2CCC(=C3c4ccc(Cl)cc4CC(O)c4cccnc43)CC2)cc1 (centres unmarked) [Example 18] | 46.6 | – | – | 12.50
11 | CC(C)(C(=O)O)c1ccc(CCCN2CCC(=C3c4ccc(Cl)cc4C(O)Cc4cccnc43)CC2)cc1 (centres unmarked) [Example 19] | 53.3 | – | – | 11.83
12 | CC(C)(C(=O)O)c1ccc(CCCN2CCC(=C3c4ccc(Cl)cc4CCc4cc(O)cnc43)CC2)cc1 [Example 20] | 58 | – | – | 7.65
13 | CC(C)(C(=O)O)c1ccc(CCCN2CCC(=C3c4ccccc4CC(=O)c4sccc43)CC2)cc1 [Example 22, 2-Methyl-2-(4-(3-(4-(10-oxo-9,10-dihydro-4H-benzo[4,5]cyclohepta[1,2-b]thiophene-4-alkylene)piperidin 1-yl)propyl)phenyl) propionic acid] | 63.3 | – | – | 18.43
14 | CC(C)(C(=O)O)c1ccc(CCCN2CCC(=C3c4ccccc4CC(O)c4sccc43)CC2)cc1 (centres unmarked) [Example 23, 2-(4-(3-(4-(10-hydroxy-9,10-dihydro-4H-benzo[4,5]cyclohept[1,2-b]thiophen-4-alkylene)piperidin-1-yl)propyl)phenyl)-2-methylpropionic acid] | 66.7 | – | – | 8.54
15 | CC(C)(C(=O)O)c1ccc(CCCCN2CCC(=C3c4ccc(Cl)cc4CCc4cccnc43)CC2)cc1 [Example 24] | 47.6 | – | – | 10.32
16 | CC(C)(C(=O)O)c1cccc(CCCN2CCC(=C3c4ccc(Cl)cc4CCc4cccnc43)CC2)c1 [Example 25, 2-(3-(3-(4-(8-chloro-5,6-dihydro-11H-benzo [5,6]cyclohepta [1,2-b]pyridine-11-enyl)piperidine-1-yl)propyl)phenyl)-2-methylpropionic acid] | 66.8 | – | – | 9.68
17 | CC(C)(C(=O)O)c1cccc(CCCN2CCC(=C3c4ccccc4CC(O)c4sccc43)CC2)c1 (centres unmarked) [Example 27, 2-(3-(3-(4-(10-hydroxy-9,10-dihydro-4H-benzo[4,5]cyclohepta[1,2-b]thiophene-4-alkylene)piperidin-1-yl)propyl)phenyl)-2-methylpropionic acid] | 48.8 | – | – | 5.48
18 | CC(C)(C(=O)O)c1ccccc1CCCN1CCC(=C2c3ccc(Cl)cc3CCc3cccnc32)CC1 [Example 28, 2-(2-(3-(4-(8-chloro-5,6-dihydro-11H-benzo[5,6]cyclohepta[1,2-b]pyridine-11-enyl)piperidine-1-yl)propyl)phenyl)-2-methylpropionic acid] | 43.8 | – | – | 19.65
19 | CC(C)(C(=O)O)c1cccc(C(O)CCCN2CCC(=C3c4ccc(Cl)cc4CCc4cccnc43)CC2)c1 (centres unmarked) [Example 30, 2-(3-(4-(4-(8-chloro-5,6-dihydro-11H-benzo[5,6]cyclohepta[1,2-b]pyridine-11-enyl)piperidine-1-yl)-1-hydroxybutyl)phenyl)-2-methylpropionic acid] | 52.2 | – | – | 6.74
20 | CC(C)(C(=O)O)c1cccc(C(O)CCN2CCC(=C3c4ccc(Cl)cc4CCc4cccnc43)CC2)c1 (centres unmarked) [Example 31, 2-(3-(3-(4-(8-chloro-5,6-dihydro-11H-benzo[5,6]cyclohepta[1,2-b]pyridine-11-enyl)piperidine-1-yl)-1-hydroxypropyl)phenyl)-2-methylpropionic acid] | 48 | – | – | 13.25
21 | CC(C)(C(=O)[O-])c1ccc(CCN2CCC(=C3c4ccc(Cl)cc4CCc4cccnc43)CC2)cc1.[Na+] [Example 32] | – | > 30 | – | 18.93
